According to patent US20080275058A1, “N-Substituted-1H-Quinoline-2,4-Diones, Preparation Method Thereof, And Pharmaceutical Composition Containing The Same” (KOREA RESEARCH INSTITUTE OF CHEMICAL TECHNOLOGY, priority 2005, published 2008):
Like-named read-outs stand apart in the source and are kept apart here.

Legend:
5-HT2c = biological target: T1, 5-HT2c (Homo sapiens, UniProt P28335); assay: Radioligand binding, 5-HT2c ([3H]Mesulergine); conditions: Table 4; [3H]Mesulergine 1 nM; read-out: Binding affinity, IC50 (nM) 5-HT2c
T1 construct: purchased Euroscreen/BioSignal Packard Inc
T1 sequence (P28335 33-458): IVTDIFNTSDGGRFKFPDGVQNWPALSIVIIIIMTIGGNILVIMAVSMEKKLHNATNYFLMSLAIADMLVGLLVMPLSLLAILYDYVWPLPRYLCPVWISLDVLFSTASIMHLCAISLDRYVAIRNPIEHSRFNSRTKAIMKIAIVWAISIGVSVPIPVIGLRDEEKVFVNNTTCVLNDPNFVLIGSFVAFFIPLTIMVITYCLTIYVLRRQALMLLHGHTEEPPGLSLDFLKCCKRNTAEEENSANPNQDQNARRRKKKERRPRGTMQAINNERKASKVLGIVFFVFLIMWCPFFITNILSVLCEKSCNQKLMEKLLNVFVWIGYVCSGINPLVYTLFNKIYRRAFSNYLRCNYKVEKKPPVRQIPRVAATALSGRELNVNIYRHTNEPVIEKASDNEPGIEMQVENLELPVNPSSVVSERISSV

5-HT7 = biological target: T2, 5-HT7 (Homo sapiens, UniProt P34969); assay: Radioligand binding, 5-HT7 ([3H]LSD); conditions: Table 4; [3H]LSD 3 nM; read-out: Binding affinity, IC50 (nM) 5-HT7
T2 construct: purchased Euroscreen/BioSignal Packard Inc
T2 sequence (P34969 whole entry): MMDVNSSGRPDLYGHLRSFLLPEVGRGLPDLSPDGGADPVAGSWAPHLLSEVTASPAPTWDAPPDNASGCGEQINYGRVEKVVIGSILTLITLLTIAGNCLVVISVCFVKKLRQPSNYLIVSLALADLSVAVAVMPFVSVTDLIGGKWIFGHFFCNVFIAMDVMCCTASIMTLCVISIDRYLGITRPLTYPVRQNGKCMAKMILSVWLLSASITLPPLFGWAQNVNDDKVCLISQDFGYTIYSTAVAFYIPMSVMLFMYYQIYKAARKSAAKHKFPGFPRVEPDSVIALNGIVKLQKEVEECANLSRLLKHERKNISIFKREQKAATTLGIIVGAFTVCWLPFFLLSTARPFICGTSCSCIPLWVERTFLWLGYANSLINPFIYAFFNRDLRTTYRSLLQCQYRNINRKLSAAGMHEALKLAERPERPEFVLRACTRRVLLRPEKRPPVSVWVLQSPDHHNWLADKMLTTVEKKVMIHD

[1] = biological target: T3, Human serotonin 5-HT6 receptor (Homo sapiens, UniProt P50406); assay: [3H]LSD binding assay on cloned 5-HT6 receptor membranes
T3 construct: made in house; host or cells: insect Sf21 cells (baculovirus vector BacPAK8)
T3 sequence (P50406 whole entry): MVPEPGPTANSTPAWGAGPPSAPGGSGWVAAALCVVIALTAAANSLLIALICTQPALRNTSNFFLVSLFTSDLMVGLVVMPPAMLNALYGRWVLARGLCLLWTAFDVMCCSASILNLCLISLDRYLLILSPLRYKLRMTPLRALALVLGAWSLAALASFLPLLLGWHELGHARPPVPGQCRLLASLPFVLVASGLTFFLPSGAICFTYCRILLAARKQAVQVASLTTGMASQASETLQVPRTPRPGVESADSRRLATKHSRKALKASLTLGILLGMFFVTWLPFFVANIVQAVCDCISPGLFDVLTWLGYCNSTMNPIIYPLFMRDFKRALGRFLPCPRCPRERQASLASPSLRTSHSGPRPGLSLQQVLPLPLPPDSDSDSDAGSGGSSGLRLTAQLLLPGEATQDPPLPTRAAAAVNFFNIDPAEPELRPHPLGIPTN

hD2L = biological target: T4, hD2L (Homo sapiens, UniProt P14416); assay: Radioligand binding, dopamine D2 ([3H]spiperone); conditions: Table 4; [3H]spiperone 1 nM; read-out: Binding affinity, IC50 (nM) D2
T4 construct: purchased BioSignal Packard Inc., Montreal, Canada
T4 sequence (P14416 whole entry): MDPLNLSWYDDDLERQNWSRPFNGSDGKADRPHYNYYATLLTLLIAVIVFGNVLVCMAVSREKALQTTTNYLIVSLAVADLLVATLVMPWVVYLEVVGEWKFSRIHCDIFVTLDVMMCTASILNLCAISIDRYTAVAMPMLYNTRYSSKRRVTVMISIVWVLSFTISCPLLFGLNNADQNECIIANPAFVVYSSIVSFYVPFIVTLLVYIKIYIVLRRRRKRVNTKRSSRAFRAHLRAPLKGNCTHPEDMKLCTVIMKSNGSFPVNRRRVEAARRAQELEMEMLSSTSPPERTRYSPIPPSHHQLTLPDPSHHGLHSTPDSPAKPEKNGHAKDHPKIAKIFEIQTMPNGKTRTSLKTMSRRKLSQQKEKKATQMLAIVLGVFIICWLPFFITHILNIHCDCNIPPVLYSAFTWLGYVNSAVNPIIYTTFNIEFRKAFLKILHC
Procedure, shortened: (§1)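 Membrane competition binding with [3H]spiperone (1 nM) for hD2L and hD3, or [3H]YM-09151-2 (0.06 nM) for hD4.2, each in receptor-specific Tris-HCl pH 7.4 buffer containing Mg2+/EDTA (D3 and D4 also with K+, Ca2+; D3 with 120 mM NaCl). Compounds were tested at 7-8 concentrations in duplicate, and IC50 was derived by nonlinear regression across three assays.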

hD3 = biological target: T5, hD3 (Homo sapiens, UniProt P35462); assay: Radioligand binding, dopamine D3 ([3H]spiperone); conditions: Table 4; [3H]spiperone 1 nM; read-out: Binding affinity, IC50 (nM) D3
T5 construct: purchased BioSignal Packard Inc., Montreal, Canada
T5 sequence (P35462 whole entry): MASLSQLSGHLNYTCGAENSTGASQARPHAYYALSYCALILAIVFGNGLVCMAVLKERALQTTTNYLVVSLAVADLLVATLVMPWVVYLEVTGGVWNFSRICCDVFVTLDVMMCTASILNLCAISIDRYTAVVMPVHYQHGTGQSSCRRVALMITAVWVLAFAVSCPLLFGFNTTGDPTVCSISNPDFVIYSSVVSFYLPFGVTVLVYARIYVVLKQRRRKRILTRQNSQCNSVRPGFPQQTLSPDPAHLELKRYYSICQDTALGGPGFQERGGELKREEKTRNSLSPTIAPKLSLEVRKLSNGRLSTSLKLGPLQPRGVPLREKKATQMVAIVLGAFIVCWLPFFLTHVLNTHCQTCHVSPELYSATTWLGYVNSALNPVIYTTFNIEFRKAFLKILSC
Procedure, shortened: as §1

D1 = D1 (Homo sapiens, UniProt P21728); assay: Radioligand binding, dopamine D1; conditions: Table 4; read-out: Binding affinity, IC50 (nM) D1
Sequence of D1 (P21728 whole entry): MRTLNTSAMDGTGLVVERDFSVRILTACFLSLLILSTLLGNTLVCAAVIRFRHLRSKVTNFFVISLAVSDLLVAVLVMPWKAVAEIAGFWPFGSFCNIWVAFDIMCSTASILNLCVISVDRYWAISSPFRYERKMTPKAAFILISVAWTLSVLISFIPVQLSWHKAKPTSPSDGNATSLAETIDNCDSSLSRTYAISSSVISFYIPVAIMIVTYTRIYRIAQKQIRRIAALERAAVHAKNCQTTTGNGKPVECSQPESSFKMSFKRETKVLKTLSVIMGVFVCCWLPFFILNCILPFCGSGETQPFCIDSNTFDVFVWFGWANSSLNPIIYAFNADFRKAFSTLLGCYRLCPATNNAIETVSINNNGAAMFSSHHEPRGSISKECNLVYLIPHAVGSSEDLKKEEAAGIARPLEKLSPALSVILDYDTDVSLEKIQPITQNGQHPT

5-HT1a = biological target: T6, 5-HT1a (Homo sapiens, UniProt P08908); assay: Radioligand binding, 5-HT1a ([3H]8-OH-DPAT); conditions: Table 4; [3H]8-OH-DPAT 0.5 nM; read-out: Binding affinity, IC50 (nM) 5-HT1a
T6 construct: purchased Euroscreen/BioSignal Packard Inc
T6 sequence (P08908 1-422): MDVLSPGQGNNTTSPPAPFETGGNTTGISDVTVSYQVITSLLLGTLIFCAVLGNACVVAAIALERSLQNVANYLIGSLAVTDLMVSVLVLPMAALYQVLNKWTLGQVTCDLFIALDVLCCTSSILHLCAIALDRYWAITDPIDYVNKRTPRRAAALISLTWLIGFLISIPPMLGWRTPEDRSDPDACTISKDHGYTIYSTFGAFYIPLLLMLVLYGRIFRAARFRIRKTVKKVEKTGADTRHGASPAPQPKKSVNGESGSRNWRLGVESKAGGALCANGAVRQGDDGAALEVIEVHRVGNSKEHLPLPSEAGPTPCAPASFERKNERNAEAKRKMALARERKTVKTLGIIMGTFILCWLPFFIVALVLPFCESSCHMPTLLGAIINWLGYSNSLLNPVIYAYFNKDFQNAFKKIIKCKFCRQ
Procedure, shortened: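 Binding was measured on commercial receptor membrane preparations, following the membrane supplier's own test protocol.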

5-HT2a = biological target: T7, 5-HT2a (Homo sapiens, UniProt P28223); assay: Radioligand binding, 5-HT2a ([3H]Ketanserin); conditions: Table 4; [3H]Ketanserin 1 nM; read-out: Binding affinity, IC50 (nM) 5-HT2a
T7 construct: purchased Euroscreen/BioSignal Packard Inc
T7 sequence (P28223 whole entry): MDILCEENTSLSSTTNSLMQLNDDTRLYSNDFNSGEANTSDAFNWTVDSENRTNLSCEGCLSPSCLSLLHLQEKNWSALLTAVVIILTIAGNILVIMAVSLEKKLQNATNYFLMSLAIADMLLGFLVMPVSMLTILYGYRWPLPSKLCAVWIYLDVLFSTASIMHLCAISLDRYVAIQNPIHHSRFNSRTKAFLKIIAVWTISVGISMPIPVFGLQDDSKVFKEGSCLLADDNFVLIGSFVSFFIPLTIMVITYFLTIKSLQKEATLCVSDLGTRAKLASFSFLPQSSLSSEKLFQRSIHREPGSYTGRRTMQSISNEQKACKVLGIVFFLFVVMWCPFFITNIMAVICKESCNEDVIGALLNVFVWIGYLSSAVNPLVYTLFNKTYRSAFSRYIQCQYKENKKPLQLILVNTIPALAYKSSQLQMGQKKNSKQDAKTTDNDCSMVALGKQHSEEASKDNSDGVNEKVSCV

Rotarod deficit in mice = type: in vivo, mouse; conditions: mouse, in vivo, po, unit printed as image, read-out: TD50 (median neurotoxic dose)
Protocol: (§2) The mouse was placed on a 1 inch diameter knurled plastic rod rotating at 6 rpm (Ugo-Basile, Milano, Italy), and the rotarod deficit (%) was obtained by counting the number of animals fallen from the rotating rod within 1 min [Dunham et al., 1957] at 60, 90 and 120 min after the injection of the compound according to the invention(200, 300 or 400 ? ). […] The compounds of the examples were suspended in 3% Tween 80 solution, and were administered (p.o.) 60 min before the testing.

mice = assay: Rotarod deficit in mice; type: in vivo, mouse
Protocol: as §2

hD4.2 receptor = biological target: T8, hD4.2 receptor (Homo sapiens, UniProt P21917, DEL265-296); assay: Radioligand binding, dopamine D4 ([3H]YM-09151-2); conditions: Table 4; [3H]YM-09151-2 0.06 nM; read-out: Binding affinity, IC50 (nM) D4
T8 construct: purchased BioSignal Packard Inc., Montreal, Canada
T8 sequence (P21917 with tags, fused parts or gaps DEL265-296): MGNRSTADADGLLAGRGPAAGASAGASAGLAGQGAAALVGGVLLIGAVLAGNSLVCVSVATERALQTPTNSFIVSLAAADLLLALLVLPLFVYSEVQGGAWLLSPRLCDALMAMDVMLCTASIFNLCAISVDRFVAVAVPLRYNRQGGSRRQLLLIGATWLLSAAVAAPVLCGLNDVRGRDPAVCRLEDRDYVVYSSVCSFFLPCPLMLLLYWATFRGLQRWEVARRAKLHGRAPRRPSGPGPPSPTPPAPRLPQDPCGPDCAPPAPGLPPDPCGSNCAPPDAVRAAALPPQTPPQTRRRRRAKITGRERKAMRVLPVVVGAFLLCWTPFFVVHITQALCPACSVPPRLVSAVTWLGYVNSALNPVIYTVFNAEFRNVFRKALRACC
Procedure, shortened: as §1

[2] = Table 2, 1.87 nM [3H]LSD, 37 C, 60 min, read-out: IC50 (nM), binding affinity to the 5-HT6 receptor
[3] = Table 4, read-out: Binding affinity, IC50 (nM) 5-HT6

Which results are given for CN1CCN(c2cc(Cl)cc3c2C(=O)C(C)(c2ccc(OCc4ccccc4)c(Br)c2)C(=O)N3Cc2ccccc2)CC1 (stereo not drawn) [Example 12, 1-Benzyl-3-(4-benzyloxy-3-bromo-phenyl)-7-chloro-3-methyl-5-(4-methyl-piperazin-1-yl)-1H-quinoline-2,4-dione]?
melting point: 95 to 97 °C; IC50 (5-HT2c): 1290 nM; IC50 (5-HT7): 136 nM; IC50 [1, 2]: 9.2 nM; IC50 [1, 3]: 9.2 nM; IC50 (hD2L): 6450 nM; IC50 (hD3): 153 nM; IC50 (D1): 1240 nM; IC50 (5-HT1a): 2520 nM; IC50 (5-HT2a): 95 nM; TD50 at 120 min (Rotarod deficit in mice): > 400 mg/kg; Rotarod deficit (%) (mice; 200 p.o. (dose unit not given)): 0%; Rotarod deficit (%) (mice; 300 p.o. (dose unit not given)): 0%; Rotarod deficit (%) (mice; 400 p.o. (dose unit not given)): 0%; IC50 (hD4.2 receptor): > 10000 nM

Which melting point does the source give for CC1(c2ccc(I)cc2)C(=O)c2c(N3CCNCC3)cc(Cl)cc2N(Cc2ccccc2)C1=O (stereo not drawn) [Example 21, 1-Benzyl-7-chloro-3-(4-iodo-phenyl)-3-methyl-5-piperazin-1-yl-1H-quinoline-2,4-dione] here?
Its melting point is 176 to 177 °C.

What about the IC50 (5-HT2c) of the same compound?
The IC50 was 1810 nM.

What about the IC50 (5-HT7) of the same compound?
The IC50 was 3340 nM.

And the IC50 [1, 2]?
Its IC50 is 6.9 nM.

And the IC50 [1, 3]?
The IC50 was 6.9 nM.

And the IC50 (hD2L)?
Its IC50 is 1640 nM.

What about the IC50 (hD3) of the same compound?
The IC50 was 1050 nM.

And the IC50 (D1)?
Its IC50 is 1620 nM.

What about the IC50 (5-HT1a) of the same compound?
The IC50 was 468 nM.

What about the IC50 (5-HT2a) of the same compound?
The IC50 was 553 nM.

And the TD50 at 120 min (Rotarod deficit in mice)?
The TD50 at 120 min was greater than 400 mg/kg.

What about the “Rotarod deficit (%)” value (mice; 200 p.o. (dose unit not given)) of the same compound?
The value was 0%.

And the “Rotarod deficit (%)” value (mice; 300 p.o. (dose unit not given))?
The value was 0%.

What about the “Rotarod deficit (%)” value (mice; 400 p.o. (dose unit not given)) of the same compound?
Its value is 0%.

What about the IC50 (hD4.2 receptor) of the same compound?
The IC50 was 5870 nM.

Which melting point does the source give for CC1(c2ccc(O)cc2)C(=O)c2c(N3CCNCC3)cc(Cl)cc2N(Cc2cccc([N+](=O)[O-])c2)C1=O (stereo not drawn) [Example 24, 7-Chloro-3-(4-hydroxy-phenyl)-3-methyl-1-(3-nitro-benzyl)-5-piperazin-1-yl-1H-quinoline-2,4-dione] here?
Its melting point is 252 to 253 °C.

And the IC50 (5-HT2c)?
The IC50 was 6090 nM.

What about the IC50 (5-HT7) of the same compound?
Its IC50 is greater than 10000 nM.

And the IC50 [1, 2]?
The IC50 was 14.5 nM.

What about the IC50 [1, 3] of the same compound?
The IC50 was 14.5 nM.

And the IC50 (hD2L)?
The IC50 was 3000 nM.

And the IC50 (hD3)?
The IC50 was 2330 nM.

What about the IC50 (D1) of the same compound?
Its IC50 is 4930 nM.

What about the IC50 (5-HT1a) of the same compound?
Its IC50 is greater than 10000 nM.

And the IC50 (5-HT2a)?
Its IC50 is 5040 nM.

And the TD50 at 120 min (Rotarod deficit in mice)?
Its TD50 at 120 min is greater than 400 mg/kg.

And the “Rotarod deficit (%)” value (mice; 200 p.o. (dose unit not given))?
Its value is 0%.

What about the “Rotarod deficit (%)” value (mice; 300 p.o. (dose unit not given)) of the same compound?
The value was 0%.

And the “Rotarod deficit (%)” value (mice; 400 p.o. (dose unit not given))?
Its value is 0%.

And the IC50 (hD4.2 receptor)?
The IC50 was greater than 10000 nM.

For COc1ccc(C2(C)C(=O)c3c(N4CCNCC4)cc(Cl)cc3N(Cc3cccc(OC)c3)C2=O)cc1 (stereo not drawn) [Example 27, 7-Chloro-1-(3-methoxy-benzyl)-3-(4-methoxy-phenyl)-3-methyl-5-piperazin-1-yl-1H-quinoline-2,4-dione], which melting point is on record?
Its melting point is 110 to 112 °C.

What about the IC50 (5-HT2c) of the same compound?
The IC50 was greater than 1000 nM.

What about the IC50 (5-HT7) of the same compound?
Its IC50 is greater than 1000 nM.

And the IC50 [1, 2]?
The IC50 was 2.3 nM.

And the IC50 [1, 3]?
Its IC50 is 2.3 nM.

What about the IC50 (hD2L) of the same compound?
The IC50 was greater than 1000 nM.

And the IC50 (hD3)?
The IC50 was 2640 nM.

And the IC50 (D1)?
Its IC50 is greater than 1000 nM.

And the IC50 (5-HT1a)?
Its IC50 is greater than 10000 nM.

And the IC50 (5-HT2a)?
Its IC50 is greater than 1000 nM.

And the TD50 at 120 min (Rotarod deficit in mice)?
Its TD50 at 120 min is greater than 400 mg/kg.

What about the “Rotarod deficit (%)” value (mice; 200 p.o. (dose unit not given)) of the same compound?
Its value is 0%.

What about the “Rotarod deficit (%)” value (mice; 300 p.o. (dose unit not given)) of the same compound?
Its value is 0%.

And the “Rotarod deficit (%)” value (mice; 400 p.o. (dose unit not given))?
The value was 0%.

What about the IC50 (hD4.2 receptor) of the same compound?
Its IC50 is greater than 10000 nM.
